Laboratory results taken from the supplement of paper PMC10307832.

Columns and labels:
Experiment in all cases: relative viability (nuclei count vs DMSO), 5 days (fraction); higher = more cells survive
QS11 + Luminespib = compound: C1CC2=C(C1)C=C(C=C2)OC3=NC(=C4C(=N3)N(C=N4)CC5=CC=C(C=C5)C6=CC=CC=C6)N[C@@H](CC7=CC=CC=C7)CO [QS11] + CCNC(=O)c1noc(-c2cc(C(C)C)c(O)cc2O)c1-c1ccc(CN2CCOCC2)cc1 [Luminespib] (partner 0.01 µM)
Method in brief: (§1)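 For relative viability, nuclei counts in treated wells were divided by those in vehicle wells. Lung cancer cell lines had been pin-tool dosed in 1536-well plates the day after seeding and cultured for 5 days, then fixed and stained in one step (final 0.05% Triton X-100, 1% formaldehyde, 1 ug/ml Hoechst) and imaged at 4×. Doses were one drug alone or a fixed anchor-drug dose plus five library-drug doses (not always all listed) in √10 steps, and values are duplicate-plate medians.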

QS11 + Lapatinib = compound: C1CC2=C(C1)C=C(C=C2)OC3=NC(=C4C(=N3)N(C=N4)CC5=CC=C(C=C5)C6=CC=CC=C6)N[C@@H](CC7=CC=CC=C7)CO [QS11] + CS(=O)(=O)CCNCc1ccc(-c2ccc3ncnc(Nc4ccc(OCc5cccc(F)c5)c(Cl)c4)c3c2)o1 [Lapatinib] (partner 2 µM)
Method in brief: as §1

QS11 + AZD7762 = compound: C1CC2=C(C1)C=C(C=C2)OC3=NC(=C4C(=N3)N(C=N4)CC5=CC=C(C=C5)C6=CC=CC=C6)N[C@@H](CC7=CC=CC=C7)CO [QS11] + NC(=O)Nc1cc(-c2cccc(F)c2)sc1C(=O)N[C@H]1CCCNC1 [AZD7762] (partner 0.2 µM)
Method in brief: as §1

[1] = compound: C[As](C)SC[C@H](NC(=O)CC[C@H](N)C(=O)O)C(=O)NCC(=O)O [Darinaparsin] + CS(=O)(=O)N1CCN(Cc2cc3nc(-c4cccc5[nH]ncc45)nc(N4CCOCC4)c3s2)CC1 [Pictilisib] (partner 1 µM)
Method in brief: as §1

| Cell Line | relative viability (QS11 + Luminespib; first compound 0.08 µM) | relative viability (QS11 + Luminespib; first compound 0.253 µM) | relative viability (QS11 + Luminespib; first compound 2.53 µM) | relative viability (QS11 + Luminespib; first compound 8 µM) | relative viability (QS11 + Lapatinib; first compound 0.08 µM) | relative viability (QS11 + Lapatinib; first compound 0.253 µM) | relative viability (QS11 + Lapatinib; first compound 2.53 µM) | relative viability (QS11 + Lapatinib; first compound 8 µM) | relative viability (QS11 + AZD7762; first compound 0.08 µM) | relative viability (QS11 + AZD7762; first compound 0.253 µM) | relative viability (QS11 + AZD7762; first compound 0.8 µM) | relative viability (QS11 + AZD7762; first compound 2.53 µM) | relative viability (QS11 + AZD7762; first compound 8 µM) | relative viability ([1]; first compound 0.08 µM) | relative viability ([1]; first compound 0.8 µM) | relative viability ([1]; first compound 2.53 µM) | relative viability ([1]; first compound 8 µM) | relative viability (QS11 + Luminespib; first compound 0.8 µM) | relative viability (QS11 + Lapatinib; first compound 0.8 µM) |
| --- | --- | --- | --- | --- | --- | --- | --- | --- | --- | --- | --- | --- | --- | --- | --- | --- | --- | --- | --- |
| EKVX | 0.907 | 0.732 | 0.848 | 1.03 | 0.189 | 0.167 | 0.216 | 0.201 | 0.693 | 0.743 | 0.627 | 0.649 | 0.755 | 0.508 | 0.404 | 0.452 | 0.488 |  |  |
| NCI-H1355 | 0.743 | 0.696 | 0.727 | 0.703 | 1.08 | 0.792 | 0.997 | 1.07 | 0.729 | 0.607 | 0.666 | 0.614 | 0.759 | 0.445 | 0.37 | 0.451 | 0.456 | 0.602 | 0.688 |
| H3255 | 0.818 | 1.06 | 0.966 | 0.961 | 0.261 | 0.236 | 0.24 | 0.234 | 0.931 | 0.946 | 0.634 | 1.01 | 0.902 | 0.474 | 0.429 | 0.421 | 0.514 |  |  |
| NCI-H23 | 0.212 | 0.237 | 0.227 | 0.182 | 1.01 | 0.988 | 0.885 | 1.1 | 0.229 | 0.252 | 0.278 | 0.208 | 0.216 | 0.431 | 0.494 | 0.444 | 0.603 | 0.208 | 0.871 |
| NCI-H1755 | 0.403 | 0.406 | 0.422 | 0.412 | 1.12 | 1.02 | 0.953 | 0.833 | 0.472 | 0.492 | 0.42 | 0.48 | 0.413 | 0.461 | 0.398 | 0.355 | 0.38 | 0.289 | 0.608 |
| NCI-H650 | 0.758 | 0.806 | 0.654 | 0.868 | 0.83 | 0.907 | 0.801 | 0.667 | 0.762 | 0.981 | 0.775 | 1.05 | 0.645 | 0.856 | 0.834 | 0.922 | 1.13 | 0.802 | 1.13 |
| NCI-H1437 | 1.15 | 1.2 | 1.05 | 0.947 | 0.832 | 0.846 | 0.704 | 0.598 | 1.12 | 1.18 | 0.891 | 1.08 | 1.11 | 0.468 | 0.409 | 0.395 | 0.391 | 1.11 | 0.581 |
| NCI-H460 | 0.0331 | 0.0356 | 0.0243 | 0.0438 | 1.4 | 1.14 | 0.686 | 0.24 | 0.703 | 0.644 | 0.493 | 0.638 | 0.889 | 0.479 | 0.415 | 0.373 | 0.406 | 0.0316 | 0.567 |
| HARA | 0.675 | 0.747 | 0.845 | 1.19 | 0.675 | 0.643 | 0.708 | 0.751 | 0.63 |  | 0.267 | 0.454 | 0.329 | 0.393 | 0.371 | 0.324 | 0.413 |  |  |
| NCI-H2085 | 0.376 | 0.474 | 0.403 | 0.546 | 0.714 | 0.716 | 0.861 | 0.778 | 1.01 | 1.06 | 0.791 | 1 | 0.991 | 0.553 | 0.419 | 0.455 | 0.44 | 0.286 | 0.713 |
| NCI-H1395 | 0.795 | 0.549 | 0.843 | 0.819 |  | 0.98 | 1.14 | 0.977 | 0.389 | 0.382 | 0.4 | 0.432 | 0.404 | 0.538 | 0.617 | 0.619 | 0.568 | 0.762 | 0.992 |
| RERF-LC-KJ | 1.5 | 1.35 | 1.22 | 1.11 | 0.588 | 0.877 | 0.77 | 0.882 | 1.06 | 0.836 | 0.728 | 0.879 | 0.945 | 0.576 | 0.571 | 0.522 | 0.44 | 1.04 | 0.577 |
| NCI-H2087 | 0.136 | 0.186 | 0.158 | 0.172 | 0.996 | 1.09 | 0.651 | 0.688 | 1.28 | 1.4 | 1.08 | 1.3 | 1.3 | 1.06 | 0.881 | 0.652 | 0.997 |  | 0.728 |
| EMC-BAC-2 | 1.28 | 1.27 | 0.953 | 0.961 | 0.927 | 0.89 | 0.984 | 0.89 | 1.1 | 0.99 | 0.957 | 0.989 | 0.856 | 0.607 | 0.501 | 0.582 | 0.568 | 0.817 | 0.884 |
| A-427 | 0.918 | 0.885 | 1.02 | 1.05 | 0.881 | 1.08 | 1.12 | 1.07 | 0.673 | 0.744 |  | 0.856 | 1.05 | 0.893 | 0.761 | 0.757 | 0.856 |  |  |
| NCI-H727 | 0.876 | 0.391 | 0.321 | 0.341 | 1 | 0.714 | 0.665 | 0.639 | 0.694 | 0.581 | 0.584 | 0.727 | 0.612 | 0.405 | 0.425 | 0.297 | 0.465 | 0.341 | 0.892 |
| NCI-H2170 | 0.603 | 0.646 | 0.806 | 0.665 | 0.276 | 0.262 | 0.281 | 0.316 | 0.87 | 0.942 | 0.722 | 0.871 | 1.02 | 0.305 | 0.279 | 0.316 | 0.297 | 0.766 | 0.246 |
